Patent publication US20110190280A1, “Thiazole And Oxazole Kinase Inhibitors” (priority 2007, published 2011)
pIC50: −log10 of the molar value.

Legend:
SK-MEL-28 tumor cells = test: Cell growth inhibition assay (CellTiter-Glo), SK-MEL-28; details: Homo sapiens, SK-MEL-28, 72 h, read-out: Activity in SK-MEL-28 Tumor Cells;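 also: luminescent total ATP as a proxy for cell number, threefold serial dilutions at 0.2% DMSO, percent growth inhibition versus DMSO vehicle control wells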
A375P tumor cells = test: Cell growth inhibition assay (CellTiter-Glo), A375P; details: Homo sapiens, 72 h, read-out: Activity in A375P Tumor Cells;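 also: total ATP luminescence used as proxy for cell number, serial threefold compound dilutions at 0.2% DMSO, growth inhibition expressed versus DMSO vehicle-treated wells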
ErbB2 = ErbB2 (Homo sapiens, UniProt P04626); test: ErbB2 kinase autophosphorylation assay (peptide phosphorylation, HTRF); type: biochemical; details: 10 nM ErbB2, HTRF; class by pIC50
Procedure: (§1) A selection of compounds of the present invention were tested for inhibitory activity against EGFR and ErbB2 kinases in autophosphorylation assays.
(§2) The method measures the ability of the isolated enzyme to catalyse the transfer of the gamma-phosphate from ATP onto the tyrosine residue of a biotinylated synthetic peptide referenced “Peptide C” in Brignola, P. S., et al, (2002) J. Biol. Chem. 277(2):1576-1585. The extent of tyrosine phosphorylation was measured using an anti-phosphotyrosine antibody, and quantified by homogenous time-resolved fluorescence (HTRF).
(§3) Reactions were performed in black 384-well polystyrene flat-bottom plates in a final volume of 20 ul. Assays were performed by adding 10 μl of each of the following solutions, substrate Mix and enzyme mix: The Substrate mix contained 100 mM 3-[N-morpholino]propanesulfonic acid (MOPS) (pH 7.5), 2 mM MnCl2, 20 μM ATP, 0.01% Tween-20, 0.1 mg/mL (BSA), 0.8 uM peptide substrate, and 1 mM dithiothreitol. The enzyme mix contained 100 mM MOPS (pH7.5); 0.01% Tween-20; 0.1 mg/mL BSA, and either 0.8 nM EGFR, 10 nM ErbB2, or 1 nM ErbB4
(§4) The enzyme mix was added to the compound plates and the plates were incubated at 20° C. for 1 hour. The reactions were allowed to proceed for 90 minutes at 20° C. The reactions were then terminated by the addition of 20 μl 100 mM EDTA to each well. 40 μl/well of HTRF detection mix were added to the assay plates. The final concentrations of the detection reagents were: 100 mM HEPES (pH7.5), 0.1 mg/mL BSA, 15 nM streptavidin-labeled allophycocyanin (PerkinElmer), and 1 nM europium-labeled anti-phosphotyrosine antibody (PerkinElmer). Assay plates were left unsealed and were counted in a Wallac Multilabel Counter 1420 (PerkinElmer).
(§5) Compounds under analysis were dissolved in Me2SO to 1.0 mM and serially diluted 1 to 3 with Me2SO through twelve dilutions. 1 μl of each concentration was transferred to the corresponding well of an assay plate. This creates a final compound concentration range from 0.00027 to 47.6 μM.
(§6) The data for dose responses were plotted as % Inhibition calculated with the data reduction formula 100*(1−(U1−C2)/(C1−C2)) versus concentration of compound where U is the unknown value, C1 is the average control value obtained for 4.76% DMSO, and C2 is the average control value obtained for 0.035 M EDTA. Data were fitted with a curve described by:
(§7) where Vmax is the upper asymptote, Y2 is the Y intercept, and K is the IC50. The results for each compound were recorded as pIC50s, calculated as follows: […]
(§8) In the following table: • “+” indicates no pIC50 measurement greater than 6 against EGFR or ErbB2, • “++” indicates at least one pIC50 measurement greater than 6 against EGFR or ErbB2 but no measurement greater than pIC50 of 7; and • “+++” indicates at least one pIC50 measurement of greater than 7 against EGFR or ErbB2.

HT-29 tumor cells = test: Cell growth inhibition assay (CellTiter-Glo), HT-29; details: Homo sapiens, HT-29, 72 h, read-out: Activity in HT-29 Tumor Cells;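 also: ATP content read by luminescence as proxy for cell number, growth inhibition versus DMSO vehicle wells, 0.2% DMSO final, nine serial threefold compound dilutions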
EGFR = EGFR (Homo sapiens, UniProt P00533); test: EGFR kinase autophosphorylation assay (peptide phosphorylation, HTRF); type: biochemical; details: 0.8 nM EGFR, class by pIC50
Procedure: as §1, §2, §3, §4, §5, §6, §7, §8

Colo205 tumor cells = test: Cell growth inhibition assay (CellTiter-Glo), Colo205; details: Homo sapiens, COLO 205, 72 h, read-out: Activity in Colo205 Tumor Cells;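 also: growth measured via total ATP luminescence (CellTiter-Glo) as a proxy for cell number, inhibition expressed against DMSO-treated control wells, 3-day exposure at 0.2% final DMSO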
Procedure: (§9) Cell Growth Inhibition Assays Human colon tumor cells (Colo205) were cultured in RPMI (Mediatech 50-020-PB) containing 10% FBS and 1% penicillin-streptomycin. […] Human melanoma cancer cells (A375-F11S) were cultured in RPMI (Mediatech 50-020-PB) containing 10% FBS, 1% sodium pyruvate, and 1% penicillin-streptomycin. Human colon cancer cells (HT-29) were cultured in high glucose DMEM (Mediatech 50-013-PB) containing 10% FBS and 1% penicillin-streptomycin. Human melanoma cancer cells (SK-MEL-3) were cultured in McCoy's 5A (50-025-PB) containing 15% FBS, and 1% penicillin-streptomycin. All cell lines were maintained at 37° C. in a humidified 5% CO2, 95% air incubator.
(§10) The next day, compounds were diluted as follows: For 96-well assays, 13.5 μl of compound in DMSO were diluted using nine (9) serial 1:3 dilutions of 4.5 μl in 9 μl of DMSO. Medium (270 μl/well of RPMI with 10% FBS and 1% penicillin-streptomycin) was added to the plates. Aliquots (7 μl) were added to cells in the final assay giving a final DMSO concentration of 0.2%. For 384-well assays, 15 μl of compound in DMSO were diluted using nine (9) serial 1:3 dilutions of 5 μl in 10 μl of DMSO, followed by a further dilution of 5 μl of compound with 95 μl of medium, of which 2 μl are added to cells in the final assay giving a final DMSO concentration of 0.2%. Cells were incubated at 37° C., 5% CO2 for 3 days.
(§11) Total ATP was measured (as a surrogate estimate of cell number) using CellTiter-Glo® (Promega G7571) reagent. Briefly, plates were removed from the incubator and allowed to equilibrate to room temperature for 30 minutes. CellTiter-Glo® (25 μl or 55 μl for 384-well or 96-well assays, respectively) reagent was added to each well and plates were shaken on an orbital plate shaker for 2 minutes. Plates were incubated without shaking for a further 30 minutes and read on an LJL Analyst GT reader in luminometer mode with an integration time of 0.5 seconds per well. Percent inhibition of cell growth was calculated relative to DMSO vehicle-treated control wells.

B-Raf = B-Raf (Homo sapiens, UniProt P15056); test: B-Raf Accelerated MEK ATPase assay (BRAMA); type: biochemical; details: BRAMA enzyme assay; class by pIC50; read-out: B-Raf Activity
Procedure, shortened: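 B-Raf activity read as intrinsic MEK ATPase: catalytic activated RAF with non-phosphorylated MEK drives ADP formation, coupled through pyruvate kinase and lactate dehydrogenase to NADH oxidation, independent of ERK phosphorylation.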

SK-MEL-3 tumor cells = test: Cell growth inhibition assay (CellTiter-Glo), SK-MEL-3; details: Homo sapiens, SK-MEL3, 72 h, read-out: Activity in SK-MEL-3 Tumor Cells;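 also: human melanoma cells grown with compound for 3 days in 0.2% DMSO, total ATP read by luminescence as proxy for cell number, growth inhibition versus DMSO-treated wells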
Procedure: as §9, §10, §11

Chain of ErbB2 (P04626 23-1255): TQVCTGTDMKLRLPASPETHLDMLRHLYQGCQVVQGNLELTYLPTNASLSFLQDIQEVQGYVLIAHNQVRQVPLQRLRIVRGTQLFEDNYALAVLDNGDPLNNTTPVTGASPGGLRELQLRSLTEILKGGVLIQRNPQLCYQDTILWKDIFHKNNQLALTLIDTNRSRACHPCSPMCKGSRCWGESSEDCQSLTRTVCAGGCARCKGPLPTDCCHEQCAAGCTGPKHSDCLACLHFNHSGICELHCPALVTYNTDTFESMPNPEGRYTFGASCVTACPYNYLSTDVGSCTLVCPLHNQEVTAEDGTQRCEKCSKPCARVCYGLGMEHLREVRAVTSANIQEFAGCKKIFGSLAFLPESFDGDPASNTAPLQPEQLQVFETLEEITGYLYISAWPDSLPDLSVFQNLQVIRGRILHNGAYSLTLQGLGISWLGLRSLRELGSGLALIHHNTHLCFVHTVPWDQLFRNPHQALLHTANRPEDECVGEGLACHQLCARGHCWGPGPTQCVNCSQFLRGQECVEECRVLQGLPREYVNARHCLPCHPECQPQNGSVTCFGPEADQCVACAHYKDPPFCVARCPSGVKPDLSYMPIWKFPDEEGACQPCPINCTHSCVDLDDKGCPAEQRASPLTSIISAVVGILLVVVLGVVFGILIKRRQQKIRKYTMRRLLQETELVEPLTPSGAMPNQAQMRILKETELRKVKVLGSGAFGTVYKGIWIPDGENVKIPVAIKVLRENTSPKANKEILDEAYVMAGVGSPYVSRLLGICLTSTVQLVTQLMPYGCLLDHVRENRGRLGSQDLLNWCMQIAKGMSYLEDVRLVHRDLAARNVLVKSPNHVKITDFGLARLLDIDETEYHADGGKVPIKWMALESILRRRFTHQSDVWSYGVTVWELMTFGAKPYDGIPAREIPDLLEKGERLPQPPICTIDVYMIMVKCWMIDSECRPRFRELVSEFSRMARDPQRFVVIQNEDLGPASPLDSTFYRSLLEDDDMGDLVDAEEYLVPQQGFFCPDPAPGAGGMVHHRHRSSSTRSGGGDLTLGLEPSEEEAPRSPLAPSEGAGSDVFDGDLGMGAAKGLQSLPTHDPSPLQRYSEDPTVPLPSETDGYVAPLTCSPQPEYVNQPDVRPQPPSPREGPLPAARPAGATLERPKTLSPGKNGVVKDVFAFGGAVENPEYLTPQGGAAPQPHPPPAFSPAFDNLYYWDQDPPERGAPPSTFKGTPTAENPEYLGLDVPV
Chain of EGFR (P00533 25-1210): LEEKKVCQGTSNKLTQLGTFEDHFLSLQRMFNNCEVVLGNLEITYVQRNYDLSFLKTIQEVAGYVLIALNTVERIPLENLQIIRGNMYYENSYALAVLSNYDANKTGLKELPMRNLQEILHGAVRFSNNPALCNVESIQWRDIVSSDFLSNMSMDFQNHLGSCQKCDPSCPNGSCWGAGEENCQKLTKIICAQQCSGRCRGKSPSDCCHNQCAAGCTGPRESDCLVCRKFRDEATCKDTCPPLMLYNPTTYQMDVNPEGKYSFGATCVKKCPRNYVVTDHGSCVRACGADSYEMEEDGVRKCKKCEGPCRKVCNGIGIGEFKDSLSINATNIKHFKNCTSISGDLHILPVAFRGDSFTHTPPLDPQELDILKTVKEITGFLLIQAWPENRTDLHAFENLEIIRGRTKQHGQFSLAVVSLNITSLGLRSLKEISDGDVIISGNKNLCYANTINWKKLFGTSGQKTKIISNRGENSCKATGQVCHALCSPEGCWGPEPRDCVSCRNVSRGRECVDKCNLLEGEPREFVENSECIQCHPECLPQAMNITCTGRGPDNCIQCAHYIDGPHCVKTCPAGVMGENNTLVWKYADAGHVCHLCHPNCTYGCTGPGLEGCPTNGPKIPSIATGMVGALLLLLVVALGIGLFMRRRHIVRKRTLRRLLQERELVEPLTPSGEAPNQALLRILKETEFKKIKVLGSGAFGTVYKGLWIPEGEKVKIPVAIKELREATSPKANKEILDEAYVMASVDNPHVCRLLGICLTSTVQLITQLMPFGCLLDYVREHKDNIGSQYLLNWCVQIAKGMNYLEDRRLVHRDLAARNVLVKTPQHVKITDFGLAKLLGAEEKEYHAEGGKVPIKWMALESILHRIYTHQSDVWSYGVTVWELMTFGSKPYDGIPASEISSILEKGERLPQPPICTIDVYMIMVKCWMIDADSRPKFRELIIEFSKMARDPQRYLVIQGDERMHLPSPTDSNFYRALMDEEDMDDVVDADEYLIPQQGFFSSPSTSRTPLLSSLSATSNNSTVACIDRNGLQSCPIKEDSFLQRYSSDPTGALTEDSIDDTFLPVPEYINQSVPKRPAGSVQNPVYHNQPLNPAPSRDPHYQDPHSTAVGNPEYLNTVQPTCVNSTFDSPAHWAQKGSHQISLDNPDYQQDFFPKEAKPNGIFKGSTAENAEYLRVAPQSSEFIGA
Chain of B-Raf (P15056 whole entry): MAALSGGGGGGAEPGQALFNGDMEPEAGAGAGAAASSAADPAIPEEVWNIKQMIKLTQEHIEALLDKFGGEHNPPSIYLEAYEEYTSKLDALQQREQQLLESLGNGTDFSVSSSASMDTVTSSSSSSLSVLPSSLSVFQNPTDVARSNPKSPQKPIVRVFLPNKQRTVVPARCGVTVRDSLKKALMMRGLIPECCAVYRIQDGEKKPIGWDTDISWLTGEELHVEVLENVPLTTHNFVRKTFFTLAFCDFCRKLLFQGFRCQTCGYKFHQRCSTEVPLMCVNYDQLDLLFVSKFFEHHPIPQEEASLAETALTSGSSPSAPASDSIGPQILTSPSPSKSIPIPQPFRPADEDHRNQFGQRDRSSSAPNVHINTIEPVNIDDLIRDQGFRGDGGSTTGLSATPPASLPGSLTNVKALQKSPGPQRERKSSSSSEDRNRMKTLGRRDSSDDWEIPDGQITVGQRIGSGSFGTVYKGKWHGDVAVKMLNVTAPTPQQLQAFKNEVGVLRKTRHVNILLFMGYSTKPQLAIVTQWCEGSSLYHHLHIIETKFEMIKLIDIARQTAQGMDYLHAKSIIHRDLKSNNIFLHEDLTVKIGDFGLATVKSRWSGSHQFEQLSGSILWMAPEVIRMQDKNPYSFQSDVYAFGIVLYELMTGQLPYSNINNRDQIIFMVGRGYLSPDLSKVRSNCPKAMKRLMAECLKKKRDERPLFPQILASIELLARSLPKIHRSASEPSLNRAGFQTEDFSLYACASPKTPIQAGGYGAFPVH

| Compound | pIC50 (SK-MEL-28 tumor cells) | pIC50 (A375P tumor cells) | pIC50 (ErbB2) | pIC50 (HT-29 tumor cells) | pIC50 (EGFR) | pIC50 (Colo205 tumor cells) | pIC50 (B-Raf) | pIC50 (SK-MEL-3 tumor cells) |
| --- | --- | --- | --- | --- | --- | --- | --- | --- |
| CCNc1nc(-c2cc(C)cc(OC)c2)c(-c2ccnc(Nc3ccc(N4CCN(C(=O)COC)CC4)nc3)n2)s1 [Example 37, 4-{2-(Ethylamino)-4-[3-methyl-5-(methyloxy)phenyl]-1,3-thiazol-5-yl}-N-(6-{4-[(methyloxy)acetyl]-1-piperazinyl}-3-pyridinyl)-2-pyrimidinamine] | > 6.30 | > 6.30 | < 6.00 | > 6.30 | < 6.00 | > 6.30 | > 7.00 | > 6.30 |
| COc1cc(C)cc(-c2nc(CNS(C)(=O)=O)sc2-c2ccnc(Nc3ccc(N4CCN(C(C)=O)CC4)nc3)n2)c1 [Example 64, N-({5-(2-{[6-(4-Acetyl-1-piperazinyl)-3-pyridinyl]amino}-4-pyrimidinyl)-4-[3-methyl-5-(methyloxy)phenyl]-1,3-thiazol-2-yl}methyl)methanesulfonamide] | > 6.30 | > 6.30 | < 6.00 | > 6.30 | < 6.00 | > 6.30 | > 7.00 | > 6.30 |
| CCNc1nc(-c2cc(C)cc(OC)c2)c(-c2ccnc(Nc3ccc(N4CCOCC4)nc3)n2)s1 [Example 35, 4-{2-(Ethylamino)-4-[3-methyl-5-(methyloxy)phenyl]-1,3-thiazol-5-yl}-N-[6-(4-morpholinyl)-3-pyridinyl]-2-pyrimidinamine] | > 6.30 | > 6.30 | < 6.00 | > 6.30 | < 6.00 | > 6.30 | > 7.00 | > 6.30 |
| CCNc1nc(-c2cc(C)cc(OC)c2)c(-c2ccnc(Nc3ccc(N4CCS(=O)(=O)CC4)nc3)n2)s1 [Example 34, N-[6-(1,1-Dioxido-4-thiomorpholinyl)-3-pyridinyl]-4-{2-(ethylamino)-4-[3-methyl-5-(methyloxy)phenyl]-1,3-thiazol-5-yl}-2-pyrimidinamine] | > 6.30 | > 6.30 | < 6.00 | > 6.30 | < 6.00 | > 6.30 | > 7.00 | > 6.30 |
| CCNc1nc(-c2cc(OC)cc(OC)c2)c(-c2ccnc(Nc3ccc(N4CCOCC4)c(F)c3)n2)s1 [Example 7, 4-[4-[3,5-Bis(methyloxy)phenyl]-2-(ethylamino)-1,3-thiazol-5-yl]-N-[3-fluoro-4-(4-morpholinyl)phenyl]-2-pyrimidinamine] | > 6.30 | 5.30 to 6.30 | < 6.00 | > 6.30 | < 6.00 | > 6.30 | > 7.00 | > 6.30 |
| COc1cc(OC)cc(-c2nc(NC3CCC3)sc2-c2ccnc(Nc3ccc(OC4CCN(CCS(C)(=O)=O)CC4)c(F)c3)n2)c1 [Example 22, 4-[4-[3,5-Bis(methyloxy)phenyl]-2-(cyclobutylamino)-1,3-thiazol-5-yl]-N-[3-fluoro-4-({1-[2-(methylsulfonyl)ethyl]-4-piperidinyl}oxy)phenyl]-2-pyrimidinamine] | > 6.30 | > 6.30 | – | > 6.30 | – | > 6.30 | > 7.00 | > 6.30 |
| CCNc1nc(-c2ccc(Cl)c(C)c2)c(-c2ccnc(Nc3ccc(OCCN4CCCC4)c(Cl)c3)n2)s1 [Example 54, 4-[4-(4-Chloro-3-methylphenyl)-2-(ethylamino)-1,3-thiazol-5-yl]-N-(3-chloro-4-{[2-(1-pyrrolidinyl)ethyl]oxy}phenyl)-2-pyrimidinamine] | 5.30 to 6.30 | 5.30 to 6.30 | – | > 6.30 | – | > 6.30 | > 7.00 | > 6.30 |
| CCNc1nc(-c2cc(OC)cc(OC)c2)c(-c2ccnc(Nc3ccc(N4CCN(S(C)(=O)=O)CC4)nc3)n2)s1 [Example 2, 4-[4-[3,5-bis(methyloxy)phenyl]-2-(ethylamino)-1,3-thiazol-5-yl]-N-{6-[4-(methylsulfonyl)-1-piperazinyl]-3-pyridinyl}-2-pyrimidinamine] | > 6.30 | > 6.30 | – | > 6.30 | – | > 6.30 | > 7.00 | > 6.30 |
| CCNc1nc(-c2ccc3c(c2)OCO3)c(-c2ccnc(Nc3ccc(N4CCN(C(C)=O)CC4)nc3)n2)s1 [Example 53, N-[6-(4-Acetyl-1-piperazinyl)-3-pyridinyl]-4-[4-(1,3-benzodioxol-5-yl)-2-(ethylamino)-1,3-thiazol-5-yl]-2-pyrimidinamine] | 5.30 to 6.30 | > 6.30 | – | > 6.30 | – | > 6.30 | > 7.00 | > 6.30 |

Results, then the compound that gave them:

| pIC50 (SK-MEL-28 tumor cells) | pIC50 (A375P tumor cells) | pIC50 (ErbB2) | pIC50 (HT-29 tumor cells) | pIC50 (EGFR) | pIC50 (Colo205 tumor cells) | pIC50 (B-Raf) | pIC50 (SK-MEL-3 tumor cells) | Compound |
| --- | --- | --- | --- | --- | --- | --- | --- | --- |
| 5.30 to 6.30 | > 6.30 | > 7.00 | > 6.30 | > 7.00 | > 6.30 | > 7.00 | > 6.30 | CCNc1nc(-c2cccc(OC)c2)c(-c2ccnc(Nc3ccc(OCCN(C)C)c(C)c3)n2)s1 [Example 77, N-(4-{[2-(Dimethylamino)ethyl]oxy}-3-methylphenyl)-4-{2-(ethylamino)-4-[3-(methyloxy)phenyl]-1,3-thiazol-5-yl}-2-pyrimidinamine] |
| < 5.30 | – | < 6.00 | – | < 6.00 | 5.30 to 6.30 | > 7.00 | – | CCNc1nc(-c2cc(OC)cc(OC)c2)c(-c2ccnc(Nc3ccc(N4CCN5CCOC[C@H]5C4)nc3)n2)o1 [Example 135] |
| 5.30 to 6.30 | – | 6.00 to 7.00 | – | 6.00 to 7.00 | 5.30 to 6.30 | > 7.00 | – | COc1cc(-c2nc(N3CCCC3)sc2-c2ccnc(Nc3ccc(OCCN4CCCC4)c(F)c3)n2)ccc1Cl [Example 78, 4-[4-[4-Chloro-3-(methyloxy)phenyl]-2-(1-pyrrolidinyl)-1,3-thiazol-5-yl]-N-(3-fluoro-4-{[2-(1-pyrrolidinyl)ethyl]oxy}phenyl)-2-pyrimidinamine] |
| – | > 6.30 | < 6.00 | > 6.30 | < 6.00 | – | – | > 6.30 | CCNc1nc(-c2cc(C)cc(OC)c2)c(-c2ccnc(Nc3ccc(N4CCN(C(C)=O)CC4)nc3)n2)o1 [Example 70, N-[6-(4-Acetyl-1-piperazinyl)-3-pyridinyl]-4-{2-(ethylamino)-4-[3-methyl-5-(methyloxy)phenyl]-1,3-oxazol-5-yl}-2-pyrimidinamine] |
| 5.30 to 6.30 | 5.30 to 6.30 | – | 5.30 to 6.30 | – | > 6.30 | > 7.00 | 5.30 to 6.30 | CCNc1nc(-c2cc(OC)cc(OC)c2)c(-c2ccnc(Nc3ccc(N4CCOCC4)nc3)n2)o1 [Example 120] |
| 5.30 to 6.30 | – | < 6.00 | – | < 6.00 | 5.30 to 6.30 | > 7.00 | – | COc1cc(C)cc(-c2nc(C(C)C)sc2-c2ccnc(Nc3ccc(N4CCN5CCCCC5C4)c(F)c3)n2)c1 (centres unmarked) [Example 113] |
| 5.30 to 6.30 | 5.30 to 6.30 | – | 5.30 to 6.30 | – | > 6.30 | > 7.00 | > 6.30 | COc1cc(C)cc(-c2nc(C(C)C)oc2-c2ccnc(Nc3ccc(N4CCN(C(C)=O)CC4)nc3)n2)c1 [Example 98] |
